Measurements reported in patent publication US11352350B2, “IRAK degraders and uses thereof” (Kymera Therapeutics, Inc., priority 2018, dated 2022).
pIC50: −log10 of the molar value. Read-outs that look alike come from different tables or passages of the source.

Legend:
IRAK4 = IRAK4 (Homo sapiens (Human), UniProt Q9NWZ3); assay: IRAK4 MSD degradation in OCI-LY10; assay type: cell-based
Summary of the method: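 Remaining IRAK4 quantified by electrochemiluminescent MSD sandwich assay with two anti-IRAK4 antibodies. Compounds were dosed as 8 concentrations in 1:3 steps from a 1 to 10 μM final top on OCI-LY10 cells, incubated 4 to 24 h at 37° C. under 5% CO2. DC50 fitted with a three-parameter logistic curve.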

OCI-LY10 = assay: CTG Cell Viability Assay - OCI-LY10; assay type: cell-based, human; details: OCI-LY10, 4 days, read-out: CTG Cell Viability Assay - OCI-LY10: Average external-IC50
Summary of the method: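 Viability read by CellTiter-Glo luminescence after 4 days at 37° C under 5% CO2 with compound (top 10 μM final, 1:3 steps, 9 doses, DMSO 0.2%). Three-parameter logistic fit gave IC50.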

[1] = OCI-LY10, 4 hrs, MSD, read-out: IRAK4 MSD degradation in OCI-LY10 at 4 hrs: Average external-Abs DC50
[2] = OCI-LY10, 4 hrs, read-out: IRAK4 MSD degradation in OCI-LY10 at 4 hrs: DC50
[3] = OCI-LY10, 24 hrs, read-out: IRAK4 MSD degradation in OCI-LY10 at 24 hrs: DC50
[4] = OCI-LY10, 24 hrs, MSD, read-out: IRAK4 MSD degradation in OCI-LY10 at 24 hrs: Average external-Abs DC50

IRAK4, sequence (Q9NWZ3 whole entry): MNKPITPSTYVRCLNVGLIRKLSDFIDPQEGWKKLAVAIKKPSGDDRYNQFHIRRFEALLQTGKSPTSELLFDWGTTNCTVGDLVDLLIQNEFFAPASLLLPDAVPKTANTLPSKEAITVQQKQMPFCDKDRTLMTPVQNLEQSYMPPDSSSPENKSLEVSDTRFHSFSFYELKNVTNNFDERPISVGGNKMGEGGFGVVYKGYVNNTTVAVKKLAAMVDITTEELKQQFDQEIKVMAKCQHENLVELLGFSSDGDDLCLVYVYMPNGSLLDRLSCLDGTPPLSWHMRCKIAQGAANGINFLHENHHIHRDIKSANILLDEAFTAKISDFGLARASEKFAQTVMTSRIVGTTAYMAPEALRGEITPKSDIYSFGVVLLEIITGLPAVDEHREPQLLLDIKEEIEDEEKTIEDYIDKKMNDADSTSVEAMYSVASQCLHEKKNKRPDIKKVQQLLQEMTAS

Compound | DC50 (IRAK4; [1]) [nM] | pIC50 (OCI-LY10; Homo sapiens, OCI-Ly10, 96 h) | DC50 (IRAK4; [2]) [nM] | DC50 (IRAK4; [3]) [nM] | DC50 (IRAK4; [4]) [nM] | pIC50 (OCI-LY10)
O=C1CCC(N2C(=O)c3cccc(NCCc4ccc(CCNC[C@H]5CC[C@H](n6cc(NC(=O)c7cnn8ccc(N9C[C@H]%10C[C@@H]9CO%10)nc78)c(C(F)F)n6)CC5)cc4)c3C2=O)C(=O)N1 (stereo partly drawn) [I-346, N-[3-(difluoromethyl)-1-[4-[[2-[4-[2-[[2-(2,6-dioxo-3-piperidyl)-1,3-dioxo-isoindolin-4-yl]amino]ethyl]phenyl]ethylamino]methyl]cyclohexyl]pyrazol-4-yl]-5-[(1R,4R)-2-oxa-5-azabicyclo[2.2.1]heptan-5-yl]pyrazolo[1,5-a]pyrimidine-3-carboxamide] | > 1000 | > 7.30 | – | – | – | –
CN(C(=O)c1cnn2ccc(N3CCOCC3)nc12)c1cn([C@H]2CC[C@H](CN3CCC(OCCCNc4cccc5c4C(=O)N(C4CCC(=O)NC4=O)C5=O)CC3)CC2)nc1C(F)F (stereo partly drawn) [I-501] | – | 7.00 to 7.30 | > 1000 | > 1000 | – | –
CN(CCN1CCO[C@H](CCNc2cccc3c2C(=O)N(C2CCC(=O)NC2=O)C3=O)C1)C[C@H]1CC[C@H](n2cc(NC(=O)c3cnn4ccc(N5C[C@H]6C[C@@H]5CO6)nc34)c(C(F)F)n2)CC1 (stereo partly drawn) [I-340] | 100 to 1000 | 6.30 to 7.00 | – | – | 10 to 100 | –
CN(CCCNc1cccc2c1C(=O)N(C1CCC(=O)NC1=O)C2=O)C1CCN(C(=O)[C@H]2CC[C@H](n3cc(NC(=O)c4cnn5ccc(C6C[C@H]7C[C@@H]6CO7)nc45)c(C(F)F)n3)CC2)CC1 (stereo partly drawn) [I-358] | > 1000 | 7.00 to 7.30 | – | – | 10 to 100 | –
CC[C@@H]1[C@H](F)C(=O)N[C@@H]1COc1ncc(C#CC2CCN(CCCC3CCN(c4cccc5c4C(=O)N(C4CCC(=O)NC4=O)C5=O)CC3)CC2)c2cc(C(N)=O)c(OC)cc12 (stereo partly drawn) [I-234] | 100 to 1000 | < 6.00 | – | – | 10 to 100 | –
CN(C[C@H]1CC[C@H](n2cc(NC(=O)c3coc(-c4ccnc(NCC5CC5)c4)n3)c(C(F)F)n2)CC1)C1CCN(Cc2cccc3c2C(=O)N(C2CCC(=O)NC2=O)C3=O)CC1 (stereo partly drawn) [I-169] | < 10 | < 6.00 | – | – | – | –
CC[C@H]1C(COc2ncc(C#C[C@H]3CC[C@H](CN(C)CCN4CCO[C@H](CCNc5cccc6c5C(=O)N(C5CCC(=O)NC5=O)C6=O)C4)CC3)c3cc(C(N)=O)c(OC)cc23)NC(=O)[C@H]1F (stereo partly drawn) [I-334] | 100 to 1000 | 6.30 to 7.00 | – | – | – | –
O=C1CCC(N2C(=O)c3cccc(NC[C@H]4CC[C@H](OC5CCN(C[C@H]6CC[C@H](n7cc(NC(=O)c8cnn9ccc(N%10CCOCC%10)nc89)c(C(F)F)n7)CC6)CC5)CC4)c3C2=O)C(=O)N1 (stereo partly drawn) [I-473] | – | > 7.30 | 10 to 100 | < 10 | – | –
CC(C)[C@@H](CS(=O)(=O)C(C)C)N1C(=O)[C@@](C)(CC(=O)N2CCC(CCN(C)C[C@H]3CC[C@H](n4cc(NC(=O)c5coc(-c6ccnc(NCC7CC7)c6)n5)c(C(F)F)n4)CC3)CC2)C[C@H](c2cccc(Cl)c2)[C@H]1c1ccc(Cl)cc1 [I-147] | > 1000 | < 6.00 | – | – | > 1000 | –
CN(CCOCCOCCOC12CC3CC(CC(C3)C1)C2)C[C@H]1CC[C@H](n2cc(NC(=O)c3cnn4ccc(N5CCNCC5)nc34)c(C(F)F)n2)CC1 [I-175] | > 1000 | < 6.00 | – | – | > 1000 | –
CN(CCCOCCCc1cccc2c1n(C)c(=O)n2C1CCC(=O)N(C)C1=O)C[C@H]1CC[C@H](n2cc(NC(=O)c3coc(-c4ccnc(NCC5CC5)c4)n3)c(C(F)F)n2)CC1 (stereo partly drawn) [I-246] | 100 to 1000 | < 6.00 | – | – | – | –
CN(C(=O)CCCNc1cccc2c1C(=O)N(C1CCC(=O)NC1=O)C2=O)C1CCN(C[C@H]2CC[C@H](n3cc(NC(=O)c4cnn5ccc(N6C[C@H]7C[C@@H]6CO7)nc45)c(C(F)F)n3)CC2)CC1 (stereo partly drawn) [I-366] | < 10 | > 7.30 | – | – | – | –
COc1cc(C(=O)NCCCCCCN(C)C(=O)[C@H]2CC[C@H](n3cc(NC(=O)c4coc(-c5ccnc(NCC6CC6)c5)n4)c(C(F)F)n3)CC2)ccc1NC(=O)[C@@H]1N[C@@H](CC(C)(C)C)[C@](C#N)(c2ccc(Cl)cc2F)[C@H]1c1cccc(Cl)c1F [I-143] | > 1000 | – | – | – | > 1000 | < 6.00
O=C1CCC(N2C(=O)c3cccc(NCCc4ccc(C5CCN(C[C@H]6CC[C@H](n7cc(NC(=O)c8cnn9ccc(N%10C[C@H]%11C[C@@H]%10CO%11)nc89)c(C(F)F)n7)CC6)CC5)cc4)c3C2=O)C(=O)N1 (stereo partly drawn) [I-362] | 100 to 1000 | 6.00 to 6.30 | – | – | 10 to 100 | –
CN(CCCOCCCN)C[C@H]1CC[C@H](n2cc(NC(=O)c3cnn4ccc(N5CCOCC5)nc34)c(C(F)F)n2)CC1 [I-315, N-[1-[4-[[3-(3-aminopropoxy)propyl-methyl-amino]methyl]cyclohexyl]-3-(difluoromethyl)pyrazol-4-yl]-5-morpholino-pyrazolo[1,5-a] pyrimidine-3-carboxamide] | > 1000 | < 6.00 | – | – | > 1000 | –
CC[C@@H]1[C@H](F)C(=O)N[C@@H]1COc1ncc(C#CC2CCN(CCCC3CCN(Cc4ccc5c(c4)n(C)c(=O)n5C4CCC(=O)NC4=O)CC3)CC2)c2cc(C(N)=O)c(OC)cc12 (stereo partly drawn) [I-193] | 100 to 1000 | < 6.00 | – | – | 10 to 100 | –
N#CCc1ccc2c(NC3CCC(N4CCN(C(=O)COCCOCCOCCNc5cccc6c5C(=O)N(C5CCC(=O)NC5=O)C6=O)CC4)CC3)ncnc2c1 (stereo not drawn) [I-51] | > 1000 | < 6.00 | – | – | – | –
CN(CCCOCCCc1cccc2c1n(C)c(=O)n2C1CCC(=O)NC1=O)C[C@H]1CC[C@H](n2cc(NC(=O)c3cnn4ccc(N5CCOCC5)nc34)c(C(F)F)n2)CC1 (stereo partly drawn) [I-259] | < 10 | < 6.00 | – | – | < 10 | –
O=C1CCC(N2C(=O)c3cccc(NCCCOCCCS(=O)(=O)NC(=O)[C@H]4CC[C@H](n5cc(NC(=O)c6cnn7ccc(N8C[C@H]9CC8CO9)nc67)c(C(F)F)n5)CC4)c3C2=O)C(=O)N1 (stereo partly drawn) [I-440] | 100 to 1000 | < 6.00 | – | – | > 1000 | –
CN1C(=O)C(C2CCC(=O)NC2=O)c2ccc(CN3CCC(N(C)C[C@H]4CC[C@H](n5cc(NC(=O)c6coc(-c7ccnc(NCC8CC8)c7)n6)c(C(F)F)n5)CC4)CC3)cc21 (stereo partly drawn) [I-239] | 10 to 100 | – | – | – | – | < 6.00
CN(CCCOCCc1ccc2c(c1)n(C)c(=O)n2C1CCC(=O)NC1=O)C[C@H]1CC[C@H](n2cc(NC(=O)c3coc(-c4ccnc(NCC5CC5)c4)n3)c(C(F)F)n2)CC1 (stereo partly drawn) [I-129] | < 10 | < 6.00 | – | – | – | –
O=C1CCC(N2C(=O)c3cccc(NCCOC[C@H]4CC[C@H](n5cc(NC(=O)c6cnn7ccc(N8C[C@H]9C[C@@H]8CO9)nc67)c(C(F)F)n5)CC4)c3C2=O)C(=O)N1 (stereo partly drawn) [I-369] | > 1000 | 6.30 to 7.00 | – | – | > 1000 | –
Cn1c(=O)n([C@H]2CCC(=O)NC2=O)c2cccc(CCCOC3CCN(C[C@H]4CC[C@H](n5cc(NC(=O)c6cnn7ccc(N8CCOCC8)nc67)c(C(F)F)n5)CC4)CC3)c21 [I-310, N-(3-(difluoromethyl)-1-((1r,4r)-4-((4-(3-(1-((S)-2,6-dioxopiperidin-3-yl)-3-methyl-2-oxo-2,3-dihydro-1H-benzo [d]imidazol-4-yl)propoxy)piperidin-1-yl)methyl)cyclohexyl)-1H-pyrazol-4-yl)-5-morpholinopyrazolo[1,5-a]pyrimidine-3-carboxamide] | < 10 | < 6.00 | – | – | – | –
